Patent US4727076A, “Tetrahydroquinolinylalkyl amino pyridones and ring homologues thereof, useful as histamine-H1 -receptor antagonists” (Smith Kline & French Laboratories Ltd., priority 1986, dated 1988)

Tested on: histamine H1-receptor
Experiment: inhibition of histamine induced bronchoconstriction in vivo
Set-up: species or system guinea pig
Conditions: anaesthetised guinea pigs, intravenous injection, histamine dose-response curve 5 minutes later
Experimental: Guinea pigs of either sex are anaesthetised by intraperitoneal injection of sodium pentobarbitone, 90 mg/kg. The trachea is cannulated. The animal is respired artificially with a fixed volume of air just adequate to inflate the lungs. The pressure needed to inflate the lungs is monitored from the respiratory system using a low pressure transducer. Intravenous injection of histamine causes dose-dependent increases in the pressure to inflate the lungs reflecting the bronchoconstrictor action of histamine. Responses to histamine can be antagonised using histamine H1 -receptor antagonists.
Dose-response curves to histamine are established at 20, 40, 80, 160 and 320 nmols/kg. Antagonists are then administered by intravenous injection and 5 minutes later a new histamine dose-response curve is established increasing the doses of histamine as necessary. The effect of the antagonist can be quantified by the displacement, to the right, of the histamine dose-response curve, expressed as a dose-ratio. A series of doses of antagonists may be given to each animal allowing calculation of dose-ratios for each dose of antagonist. For the compounds of Examples 1, 2 and 4, the doses (μmol/kg) required to give a dose ratio of 11 ((DR-1)=10) are 0.022, 0.06 and 0.0048 respectively.

Structure (SMILES)	dose required to give a dose ratio of 11 ((DR-1)=10) [µmol/kg]
O=c1nc(NCCCC2CCCc3cccnc32)[nH]cc1Cc1cc[n+]([O-])cc1 (stereo not drawn) [Example 1, 2-[3-(5,6,7,8-Tetrahydroquinol-8-yl)propylamino]-5-[1-oxopyrid-4-ylmethyl]-4(1H)-pyrimidone]	0.022
O=c1nc(NCCCC2CCCc3cccnc32)[nH]cc1Cc1ccc(CO)nc1 (stereo not drawn) [Example 4, 2-[3-(5,6,7,8-Tetrahydroquinol-8-yl)propylamino]-5-(6-hydroxymethylpyrid-3-ylmethyl)-4(1H)-pyrimidone]	0.0048
Cc1ccc(Cc2c[nH]c(NCCCC3CCCc4cccnc43)nc2=O)cn1 (stereo not drawn) [Example 2, 2-[3-(5,6,7,8-Tetrahydroquinol-8-yl)propylamino]-5-(6-methylpyrid-3-ylmethyl)-4(1H)-pyrimidone]	0.06
